Patent JP2006306850A, “置換ベンズアニリド化合物及び有害生物防除剤” (priority 2005, dated 2006)
Like-named read-outs stand apart in the source and are kept apart here.

What was measured:
Assay type in all cases: in vivo
Conditions in all cases: 144 h, read-out: mortality rate
[1] = tested on: oriental tea tortrix [チャハマキ(Homona magnanima)]; assay: 試験例3 チャハマキに対する殺虫試験 (insecticidal test, 2nd instar larvae)
[2] = tested on: common cutworm [ハスモンヨトウ(Spodoptera litura)]; assay: 試験例2 ハスモンヨトウに対する殺虫試験 (insecticidal test, 2nd instar larvae)
[3] = tested on: diamondback moth [コナガ(Plutella xylostella)]; assay: 試験例1 コナガに対する殺虫試験 (insecticidal test, 2nd instar larvae)
[4] = tested on: cucurbit leaf beetle [ウリハムシ(Aulacophora femoralis)]; assay: 試験例4 ウリハムシに対する殺虫試験 (insecticidal test, 2nd instar larvae)
[5] = 100 ppm, leaf dip, 2nd instar, 6 days, 25℃

In the case of `Cc1cc(C(O)(c2ccc(OC(F)(F)F)cc2)C(F)(F)F)ccc1NC(=O)c1cccc(I)c1C(=O)NC(C)C` (centres unmarked) [1-009], the mortality at 100 ppm [1] is reported as at least 80%, the mortality at 100 ppm [2] is reported as at least 80% and the mortality at 100 ppm [3] is reported as 100%. For the same molecule, the mortality at 500 ppm [4] was 100%.

`Cc1cc(C(O)(c2ccc(OC(F)(F)Br)cc2)C(F)(F)F)ccc1NC(=O)c1cccc(I)c1C(=O)NC(C)C` (centres unmarked) [1-010] gave a mortality at 100 ppm [1, 5] of at least 80%, a mortality at 100 ppm [2, 5] of at least 80% and a mortality at 100 ppm [3, 5] of 100%. It also gave a mortality at 500 ppm ([4]; 500 ppm, leaf dip, 2nd instar, 6 days, 25℃) of 100%.

`Cc1cc(C(O)(c2ccc(OS(C)(=O)=O)cc2)C(F)(F)F)ccc1NC(=O)c1cccc(I)c1C(=O)NC(C)C` (centres unmarked) [1-015] gave a mortality at 100 ppm [2] of at least 80% and a mortality at 100 ppm [3] of 100%.

`Cc1cc(C(O)(c2ccc3c(c2)OC(F)(F)C(F)(F)O3)C(F)(F)F)ccc1NC(=O)c1cccc(I)c1C(=O)NC(C)C` (centres unmarked) [1-028] gave a mortality at 100 ppm [1] of at least 80%, a mortality at 100 ppm [2] of at least 80% and a mortality at 100 ppm [3] of 100%. It also gave a mortality at 500 ppm [4] of 100%.

`Cc1cc(C(C)(O)c2ccc(C(F)(F)F)cn2)ccc1NC(=O)c1cccc(I)c1C(=O)NC(C)C` (centres unmarked) [2-001] gave a mortality at 100 ppm [2] of at least 80%, a mortality at 100 ppm [3] of 100% and a mortality at 500 ppm [4] of 100%.

Molecule `Cc1cc(C(O)(COc2ccc(Cl)cc2)C(F)(F)F)ccc1NC(=O)c1cccc(I)c1C(=O)NC(C)C` (centres unmarked) [2-004] has a mortality at 100 ppm [2] of at least 80%, a mortality at 100 ppm [3] of 100% and a mortality at 500 ppm [4] of 100%.

Molecule `Cc1cc(C(O)(C(F)(F)F)C(F)(F)Oc2ccc(Cl)cc2)ccc1NC(=O)c1cccc(I)c1C(=O)NC(C)C` (centres unmarked) [2-008] has a mortality at 100 ppm [1] of at least 80%, a mortality at 100 ppm [2] of at least 80% and a mortality at 100 ppm [3] of 100%. The mortality at 500 ppm [4] was 100%.

In the case of `Cc1cc(C(O)(C=Cc2ccc(Cl)cc2)C(F)(F)F)ccc1NC(=O)c1cccc(I)c1C(=O)NC(C)C` (centres unmarked) [2-018], the mortality at 100 ppm [1] is reported as at least 80%, the mortality at 100 ppm [2] is reported as at least 80% and the mortality at 100 ppm [3] is reported as 100%. The mortality at 500 ppm [4] was 100%.

In the case of `COC(c1ccc(Cl)cc1)(c1ccc(NC(=O)c2cccc(I)c2C(=O)NC(C)C)c(C)c1)C(F)(F)F` (centres unmarked) [3-002], the mortality at 100 ppm [1] is reported as at least 80%, the mortality at 100 ppm [2] is reported as at least 80% and the mortality at 100 ppm [3] is reported as 100%.

For `Cc1cc2c(cc1NC(=O)c1cccc(I)c1C(=O)NC(C)C)OC(F)(F)C2(O)C(F)(F)F` (centres unmarked) [4-002], the mortality at 100 ppm [1] was at least 80%, the mortality at 100 ppm [2] was at least 80% and the mortality at 100 ppm [3] was 100%. It also gave a mortality at 500 ppm [4] of 100%.
